Test results: PubChem BioAssay (NCI)
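Cultured in 96-well plates, cells were exposed to test compound for 48 hours across five concentrations. At the TGI there is no net growth.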 Where a SMILES comes first, the peptide text is derived from it. The star is where a group is joined. Cbz = O=C(OCc1ccccc1)*; Boc = CC(C)(C)OC(=O)*; OBn = c1ccc(CO*)cc1

Columns and labels:
Experiment in all cases: inhibition of tumour cell growth, NCI panel, 48 h
[1] = system: SN12C renal
[2] = system: MDA-MB-231 breast
[3] = system: NCI/ADR-RES ovarian
[4] = system: K-562 leukemia
[5] = system: NCI-H460 lung
[6] = system: SNB-19 CNS
[7] = system: HCT-15 colon
[8] = system: A498 renal
[9] = system: EKVX NSCLC
[10] = system: HT29 colon
[11] = system: HOP-62 NSCLC
[12] = system: MOLT-4 leukemia
[13] = system: MALME-3M melanoma
[14] = system: LOX IMVI melanoma
[15] = system: IGROV1 ovarian
[16] = system: CCRF-CEM leukemia
[17] = system: OVCAR-4 ovarian
[18] = system: SF-268 CNS
[19] = system: OVCAR-3 ovarian
[20] = system: DU-145 prostate
[21] = system: SK-MEL-28 melanoma
[22] = system: SF-295 CNS
[23] = system: SK-OV-3 ovarian
[24] = system: T-47D breast
[25] = system: MCF7 breast
[26] = system: HS 578T breast
[27] = system: HL-60(TB) leukemia
[28] = system: SNB-75 CNS
[29] = system: ACHN renal
[30] = system: UACC-62 melanoma
[31] = system: NCI-H23 lung
[32] = system: MDA-MB-435
[33] = system: A549 NSCLC
[34] = system: 786-0 renal
[35] = system: BT-549 breast
[36] = system: PC-3 prostate
[37] = system: HOP-92 NSCLC
[38] = system: U251 CNS
[39] = system: NCI-H522 lung
[40] = system: CAKI-1 renal
[41] = system: SW-620 colon
[42] = system: OVCAR-5 ovarian
[43] = system: UO-31 renal
[44] = system: SK-MEL-5 melanoma
[45] = system: TK-10 renal
[46] = system: UACC-257 melanoma
[47] = system: NCI-H226 lung
[48] = system: HCT-116 colon
[49] = system: MDA-N
[50] = system: SF-539 CNS
[51] = system: SK-MEL-2 melanoma
[52] = system: M14 melanoma
[53] = system: KM12 colon
[54] = system: RXF 393 renal
[55] = system: SR leukemia
[56] = system: COLO 205 colon
[57] = system: RPMI-8226 leukemia
[58] = system: HCC-2998 colon
[59] = system: OVCAR-8 ovarian

COc1ccc(C(NCCNC(c2ccc(OC)c(OC)c2)c2cc3c(cc2O)OCO3)c2cc3c(cc2O)OCO3)cc1OC (configuration not stated)
TGI [1]: 4.55 µM | TGI [2]: 8.14 µM | TGI [3]: 8.27 µM | TGI [4]: > 28.1 µM | TGI [5]: 18.3 µM | TGI [6]: 15.4 µM | TGI [7]: 5.21 µM | TGI [8]: 20.2 µM | TGI [9]: 18.7 µM | TGI [10]: 9.69 µM | TGI [11]: 30.6 µM | TGI [12]: > 100 µM | TGI [13]: 15.4 µM | TGI [14]: 3.51 µM | TGI [15]: 7.67 µM | TGI [16]: 0.86 µM | TGI [17]: 11.5 µM | TGI [18]: 3.24 µM | TGI [19]: 6.82 µM | TGI [20]: 8.51 µM | TGI [21]: 3.55 µM | TGI [22]: 17.8 µM | TGI [23]: 18.8 µM | TGI [24]: 13.1 µM | TGI [25]: 3.36 µM | TGI [26]: > 100 µM | TGI [27]: 4.69 µM | TGI [28]: 11.5 µM | TGI [29]: 7.95 µM | TGI [30]: 7.52 µM | TGI [31]: 9.3 µM | TGI [32]: 4.11 µM | TGI [33]: 32.3 µM | TGI [34]: 4.58 µM | TGI [35]: 6.22 µM | TGI [36]: 6.64 µM | TGI [37]: 17.1 µM | TGI [38]: 7.03 µM | TGI [39]: 3.52 µM | TGI [40]: 7.77 µM | TGI [41]: 3.86 µM | TGI [42]: 11.6 µM | TGI [43]: 8.27 µM | TGI [44]: 19.9 µM | TGI [45]: 12.7 µM | TGI [46]: 9.97 µM | TGI [47]: 39.1 µM | TGI [48]: 6.05 µM | TGI [49]: 3.58 µM | TGI [50]: 6.09 µM | TGI [51]: 15.9 µM | TGI [52]: 8.39 µM | TGI [53]: 7.11 µM | TGI [54]: 4.85 µM | TGI [55]: 3.43 µM | TGI [56]: > 26.1 µM

CC(=O)NC1C(OCc2ccccc2)OC(CO)C(O)C1OC(C)C(=O)NC(C(=O)NC(CCC(=O)Nc1ccc2c(c1)CN1C(=O)c3ccccc3C1=N2)C(N)=O)C(C)C (configuration not stated)
TGI [1]: > 100 µM | TGI [57]: > 100 µM | TGI [2]: > 100 µM | TGI [3]: > 100 µM | TGI [4]: > 100 µM | TGI [5]: > 100 µM | TGI [6]: > 100 µM | TGI [7]: > 100 µM | TGI [8]: > 100 µM | TGI [9]: > 100 µM | TGI [10]: > 100 µM | TGI [11]: > 100 µM | TGI [12]: > 100 µM | TGI [13]: > 100 µM | TGI [14]: > 100 µM | TGI [15]: > 100 µM | TGI [16]: > 100 µM | TGI [17]: > 100 µM | TGI [18]: > 100 µM | TGI [19]: > 100 µM | TGI [20]: > 100 µM | TGI [58]: > 100 µM | TGI [21]: > 100 µM | TGI [22]: > 100 µM | TGI [23]: > 100 µM | TGI [24]: > 100 µM | TGI [25]: > 100 µM | TGI [26]: > 100 µM | TGI [27]: > 100 µM | TGI [28]: > 100 µM | TGI [29]: > 100 µM | TGI [30]: > 100 µM | TGI [31]: > 100 µM | TGI [32]: > 100 µM | TGI [33]: > 100 µM | TGI [34]: > 100 µM | TGI [35]: > 100 µM | TGI [36]: > 100 µM | TGI [37]: > 100 µM | TGI [38]: > 100 µM | TGI [40]: > 100 µM | TGI [41]: > 100 µM | TGI [42]: > 100 µM | TGI [59]: > 100 µM | TGI [43]: > 100 µM | TGI [44]: > 100 µM | TGI [45]: > 100 µM | TGI [46]: > 100 µM | TGI [48]: > 100 µM | TGI [49]: > 100 µM | TGI [50]: > 100 µM | TGI [51]: > 100 µM | TGI [52]: > 100 µM | TGI [53]: > 100 µM | TGI [54]: > 100 µM | TGI [55]: > 100 µM | TGI [56]: > 100 µM

COC(=O)C(CCCCNC(=O)OCc1ccccc1)NC(=O)C(CCC(=O)OCc1ccccc1)NC(=O)OC(C)(C)C (configuration not stated) (Boc-Glu(OBn)-Lys(Cbz)-OMe; configuration not given here)
TGI [1]: > 100 µM | TGI [57]: > 100 µM | TGI [2]: > 100 µM | TGI [3]: > 100 µM | TGI [4]: > 100 µM | TGI [6]: > 100 µM | TGI [7]: > 100 µM | TGI [8]: 66.5 µM | TGI [9]: > 100 µM | TGI [10]: > 100 µM | TGI [11]: 32.2 µM | TGI [12]: > 100 µM | TGI [13]: > 100 µM | TGI [14]: > 100 µM | TGI [15]: > 100 µM | TGI [17]: > 100 µM | TGI [18]: > 100 µM | TGI [19]: > 100 µM | TGI [20]: > 100 µM | TGI [21]: > 100 µM | TGI [22]: > 100 µM | TGI [23]: > 100 µM | TGI [24]: > 100 µM | TGI [25]: > 100 µM | TGI [26]: > 100 µM | TGI [27]: > 100 µM | TGI [28]: > 100 µM | TGI [29]: > 100 µM | TGI [30]: > 100 µM | TGI [31]: > 100 µM | TGI [32]: > 100 µM | TGI [33]: > 100 µM | TGI [34]: > 100 µM | TGI [35]: > 100 µM | TGI [36]: > 100 µM | TGI [37]: > 100 µM | TGI [38]: > 100 µM | TGI [39]: > 100 µM | TGI [40]: > 100 µM | TGI [41]: > 100 µM | TGI [42]: > 100 µM | TGI [59]: > 100 µM | TGI [43]: > 100 µM | TGI [44]: > 100 µM | TGI [45]: > 100 µM | TGI [47]: > 100 µM | TGI [48]: > 100 µM | TGI [49]: > 100 µM | TGI [50]: > 100 µM | TGI [52]: > 100 µM | TGI [53]: > 100 µM | TGI [54]: > 100 µM | TGI [55]: > 100 µM | TGI [56]: > 100 µM
